Where two headings read alike, the source gives them in different places.
Experiments:
Myzus persicae [1] = assay: Myzus persicae spray test (MYZUPE), Chinese cabbage leaf discs; format: in vivo; details: for Emax at 100 g/ha / pest or weed control at 500 g/ha: Myzus persicae, foliar; for Emax at 100 g/ha: read-out: % efficacy; for pest or weed control at 500 g/ha: read-out: efficacy
Description: Myzus persicae—Spray Test
(§1) To produce a suitable preparation of active compound, 1 part by weight of active compound is dissolved using the specified parts by weight of solvent and made up with water containing an emulsifier concentration of 1000 ppm until the desired concentration is attained. To produce further test concentrations, the formulation is diluted with emulsifier-containing water.
Discs of Chinese cabbage leaves (Brassica pekinensis) infested by all stages of the green peach aphid (Myzus persicae) are sprayed with an active compound formulation of the desired concentration.
After 5 or 6 days, the efficacy in % is determined. 100% means that all the aphids have been killed; 0% means that no aphids have been killed.
Myzus persicae—Spray Test (MYZUPE)
Discs of Chinese cabbage leaves (Brassica pekinensis) infested by all stages of the green peach aphid (Myzus persicae) are sprayed with an active compound preparation of the desired concentration.
After the desired period of time, the efficacy in % is determined. 100% means that all the aphids have been killed; 0% means that no aphids have been killed.

Myzus persicae [2] = assay: Myzus persicae oral test (MYZUPE O); format: in vivo; details: for Emax at 4 ppm / pest or weed control at 20 ppm / Emax at 0.8 ppm: Myzus persicae, po, 120 h; for Emax at 4 ppm / Emax at 0.8 ppm: read-out: % efficacy; for pest or weed control at 20 ppm: read-out: efficacy
Description: Solvent: 100 parts by weight of acetone
To produce a suitable preparation of active compound, 1 part by weight of active compound is dissolved using the specified parts by weight of solvent and made up with water until the desired concentration is attained.
50 μl of the active compound preparation are transferred into microtitre plates and made up to a final volume of 200 μl with 150 μl of IPL41 insect medium (33%+15% sugar). Subsequently, the plates are sealed with parafilm, which a mixed population of green peach aphids (Myzus persicae) within a second microtitre plate is able to puncture and imbibe the solution through it.
After 5 days, the efficacy in % is determined. 100% means that all the aphids have been killed; 0% means that no aphids have been killed.
Myzus persicae—Oral Test (MYZUPE O)
After 5 or 6 days (dat), the efficacy in % is determined. 100% means that all the aphids have been killed; 0% means that no aphids have been killed.

[3] = log P by HPLC on reversed-phase columns (OECD Guideline 117), neutral range; format: physicochemical; details: for chromatographic logP: reversed-phase (C18) HPLC column
Aphis gossypii = Aphis gossypii spray test on cotton plants; format: in vivo; details: for pest or weed control at 20 ppm: Aphis gossypii, 144 h, read-out: efficacy (kill)
Description: Aphis gossypii—Spray Test
Solvent: 14 parts by weight of dimethylformamide
Emulsifier: alkylaryl polyglycol ether
as §1, with “water. If the addition of ammonium salts or/and penetrants is required, these are each added in a concentration of 1000 ppm to the formulation solution.” for “water.”
Cotton plants (Gossypium hirsutum) which are heavily infested by the cotton aphid (Aphis gossypii) are sprayed with an active compound formulation of the desired concentration.
After 6 days, the kill in % is determined. 100% means that all the aphids have been killed; 0% means that no aphids have been killed.

[4] = after 5 days, application rate 500 g/ha
[5] = after 5 days, application rate 20 ppm
[6] = after 6 days, application rate 20 ppm, cotton plants
[7] = after 6 days, application rate 500 g/ha
[8] = 120 h, after 5 days, application rate 500 g/ha
[9] = 144 h, MYZUPE, 100 g of ai/ha, 6 dat
[10] = HPLC, neutral range pH 7.8, read-out: LogP-neutral
[11] = 120 h, MYZUPE, 100 g of ai/ha, 5 dat

SMILES | efficacy (Myzus persicae [1]; [4]) [%] | efficacy (Myzus persicae [2]; [5]) [%] | LogP-neutral ([3]; pH 7.8) | efficacy (kill) (Aphis gossypii; [6]) [%] | also measured
CN(C(=O)c1cnc(Oc2cccc(Cl)c2)n1C)c1cccnc1 [Example II-2] | – | – | – | – | Emax at 100 g/ha (Myzus persicae [1]; 144 h): 100%; pest or weed control at 500 g/ha (Myzus persicae [1]; 144 h): 100%; Emax at 4 ppm (Myzus persicae [2]): 100%; pest or weed control at 20 ppm (Myzus persicae [2]): 100%; chromatographic logP ([3]; pH 7.8, HPLC-MS, neutral, read-out: log P[n]): 2.1; pest or weed control at 20 ppm (Aphis gossypii): 100%
CC(C)Oc1ncc(C(=S)N(C)c2cccnc2)n1C [Example II-3] | 90 | 100 | 1.99 | 100 | –
CC(C)Oc1ncc(C(=O)N(C)c2ccc[n+]([O-])c2)n1C [Example II-4] | 90 | 100 | 1.03 | 100 | –
CCCOc1ncc(C(=O)N(C)c2cccnc2)n1C [Example II-5] | – | 90 | 1.52 | 100 | efficacy (Myzus persicae [1]; [7]): 90%
CSCCOc1ncc(C(=O)N(C)c2cccnc2)n1C [Example II-6] | – | 100 | 1.45 | 99 | efficacy (Myzus persicae [1]; [7]): 90%
COCCCOc1ncc(C(=O)N(C)c2cccnc2)n1C [Example II-7] | – | 100 | 1.27 | 100 | efficacy (Myzus persicae [1]; [7]): 100%
CN(C(=O)c1cnc(OCc2cccnc2)n1C)c1cccnc1 [Example II-8] | – | 100 | 1.16 | 99 | efficacy (Myzus persicae [1]; [7]): 90%
CN(C(=O)c1cnc(Oc2ccc(Cl)cc2)n1C)c1cccnc1 [Example II-9] | – | 100 | – | 100 | efficacy (Myzus persicae [1]; [7]): 90%; LogP-neutral ([3]; HPLC, neutral range pH 7.8): 2.09
CCOc1ncc(C(=O)N(C)c2cccnc2)n1C [Example II-10] | – | 100 | 1.19 | 100 | efficacy (Myzus persicae [1]; [7]): 100%
COc1ncc(C(=O)N(C)c2cccnc2)n1C [Example II-12] | – | – | – | – | pest or weed control at 500 g/ha (Myzus persicae [1]; [8]): 100%; Emax at 100 g/ha (Myzus persicae [1]; [9]): 90%; Emax at 0.8 ppm (Myzus persicae [2]; MYZUPE O, 0.8 ppm, 5 dat): 100%; Emax at 4 ppm (Myzus persicae [2]; MYZUPE O, 4 ppm, 5 dat): 100%; pest or weed control at 20 ppm (Myzus persicae [2]; [5]): 100%; chromatographic logP [3, 10]: 0.9; pest or weed control at 20 ppm (Aphis gossypii; [6]): 100%
CN(C(=O)c1cnc(Oc2ccc(Cl)nc2)n1C)c1cccnc1 [Example II-15] | – | – | – | – | Emax at 100 g/ha (Myzus persicae [1]; [9]): 100%; pest or weed control at 500 g/ha (Myzus persicae [1]; 144 h, after 6 days, application rate 500 g/ha): 100%; Emax at 0.8 ppm (Myzus persicae [2]; MYZUPE O, 0.8 ppm, 5 dat): 100%; pest or weed control at 20 ppm (Myzus persicae [2]; [5]): 100%; chromatographic logP [3, 10]: 1.53; pest or weed control at 20 ppm (Aphis gossypii; [6]): 100%
CN(C(=O)c1cnc(Oc2ccc(F)cc2F)n1C)c1cccnc1 [Example II-17] | – | 100 | 1.86 | 100 | efficacy (Myzus persicae [1]; [7]): 100%
CN(C(=O)c1cnc(Oc2ccccc2)n1C)c1cccnc1 [Example II-24] | 100 | 100 | – | 98 | LogP-neutral ([3]; HPLC, neutral range pH 7.8): 1.68
CN(C(=O)c1cnc(Oc2cc(F)cc(F)c2)n1C)c1cccnc1 [Example II-25] | 90 | 100 | 2.01 | 90 | –
CSc1cccc(Oc2ncc(C(=O)N(C)c3cccnc3)n2C)c1 [Example II-26] | 100 | 100 | 2.09 | 100 | –
CN(C(=O)c1cnc(Oc2cccc(OC(F)(F)F)c2)n1C)c1cccnc1 [Example II-27] | 100 | 100 | 2.52 | 98 | –

SMILES | efficacy (Myzus persicae [1]; [4]) [%] | efficacy (Myzus persicae [2]; [5]) [%] | LogP-neutral ([3]; pH 7.8) | efficacy (kill) (Aphis gossypii; [6]) [%] | also measured
CN(C(=O)c1cnc(Oc2cccc(C(F)(F)F)c2)n1C)c1cccnc1 [Example II-29] | – | – | – | – | Emax at 100 g/ha (Myzus persicae [1]; [11]): 90%; pest or weed control at 500 g/ha (Myzus persicae [1]; [8]): 100%; Emax at 0.8 ppm (Myzus persicae [2]; MYZUPE O, 0.8 ppm, 5 dat): 100%; Emax at 4 ppm (Myzus persicae [2]; MYZUPE O, 4 ppm, 5 dat): 100%; pest or weed control at 20 ppm (Myzus persicae [2]; [5]): 100%; chromatographic logP [3, 10]: 2.37; pest or weed control at 20 ppm (Aphis gossypii; [6]): 100%
CN(C(=O)c1cnc(OCCSCC(F)(F)F)n1C)c1cccnc1 [Example II-30] | 100 | 100 | 1.97 | 100 | % efficacy (Myzus persicae [1]; MYZUPE, 100 g of ai/ha, 5 dat): 90%; % efficacy (Myzus persicae [2]; MYZUPE O, 0.8 ppm, 5 dat): 100%; % efficacy (Myzus persicae [2]; MYZUPE O, 4 ppm, 5 dat): 100%
CN(C(=O)c1cnc(OC2CCSCC2)n1C)c1cccnc1 [Example II-31] | – | – | – | – | Emax at 100 g/ha (Myzus persicae [1]; [11]): 90%; pest or weed control at 500 g/ha (Myzus persicae [1]; [8]): 100%; Emax at 0.8 ppm (Myzus persicae [2]; MYZUPE O, 0.8 ppm, 5 dat): 70%; Emax at 4 ppm (Myzus persicae [2]; MYZUPE O, 4 ppm, 5 dat): 100%; pest or weed control at 20 ppm (Myzus persicae [2]; [5]): 100%; chromatographic logP [3, 10]: 1.63; pest or weed control at 20 ppm (Aphis gossypii; [6]): 98%
CN(C(=O)c1cnc(OC2CCOCC2)n1C)c1cccnc1 [Example II-32] | 90 | 100 | 1.18 | 100 | –
CN(C(=O)c1cnc(OCCCF)n1C)c1cccnc1 [Example II-33] | 90 | 100 | – | 100 | LogP-neutral ([3]; HPLC, neutral range pH 7.8): 1.26
CN(C(=O)c1cnc(OCCC(F)(C(F)(F)F)C(F)(F)F)n1C)c1cccnc1 [Example II-34] | 100 | 100 | 2.51 | 100 | –
CN(C(=O)c1cnc(OC2CCOC2)n1C)c1cccnc1 (stereo not shown) [Example II-35] | 90 | 100 | – | 100 | LogP-neutral ([3]; HPLC, neutral range pH 7.8): 1
CCN(C(=O)c1cnc(Oc2ccc(Cl)nc2)n1C)c1cccnc1 [Example II-36] | 90 | 100 | – | 100 | LogP-neutral ([3]; HPLC, neutral range pH 7.8): 1.79
Cc1ccc(Oc2ncc(C(=O)N(C)c3cccnc3)n2C)cc1Cl [Example II-85] | 100 | 90 | 2.45 | – | –
CN(C(=O)c1cnc(Oc2cc(F)cc(C(F)(F)F)c2)n1C)c1cccnc1 [Example II-86] | 100 | 100 | 2.55 | – | –
COc1cc(Cl)cc(Oc2ncc(C(=O)N(C)c3cccnc3)n2C)c1 [Example II-88] | 90 | 100 | 2.26 | – | –
Cn1c(C(=O)N(c2cccnc2)C2CC2)cnc1Oc1ccc(Cl)nc1 [Example II-90] | – | 100 | – | – | efficacy (Myzus persicae [1]; after 5 days, application rate 100 g/ha): 90%; LogP-neutral ([3]; HPLC, neutral range pH 7.8): 1.8
Cn1c(C(=O)N(c2cccnc2)C2CC2)cnc1Oc1cncc(C(F)(F)F)c1 [Example II-91] | – | – | – | – | Emax at 100 g/ha (Myzus persicae [1]; [11]): 90%; pest or weed control at 500 g/ha (Myzus persicae [1]; [8]): 90%; Emax at 0.8 ppm (Myzus persicae [2]; MYZUPE O, 0.8 ppm, 5 dat): 70%; Emax at 4 ppm (Myzus persicae [2]; MYZUPE O, 4 ppm, 5 dat): 90%; pest or weed control at 20 ppm (Myzus persicae [2]; [5]): 100%; chromatographic logP [3, 10]: 2.1
CCN(C(=O)c1cnc(Oc2cncc(C(F)(F)F)c2)n1C)c1cccnc1 [Example II-92] | 100 | 100 | 2.04 | – | –
Cn1c(C(=O)N(c2cccnc2)C2CC2)cnc1Oc1cccc(Cl)c1 [Example II-93] | 90 | 100 | – | – | LogP-neutral ([3]; HPLC, neutral range pH 7.8): 2.41
CCN(C(=O)c1cnc(Oc2ccc(F)nc2)n1C)c1cccnc1 [Example II-95] | – | – | – | – | Emax at 100 g/ha (Myzus persicae [1]; 120 h): 100%; pest or weed control at 500 g/ha (Myzus persicae [1]; 120 h): 100%; Emax at 0.8 ppm (Myzus persicae [2]): 100%; Emax at 4 ppm (Myzus persicae [2]): 90%; pest or weed control at 20 ppm (Myzus persicae [2]): 100%; chromatographic logP [3, 10]: 1.55

Source: patent US10647699B2, “Substituted 2-oxyimidazolylcarboxamides as pesticides” (Bayer CropScience Aktiengesellschaft, priority 2016, dated 2020)
